These results are taken from patent EP0450660B1, “Anti-atherosclerotic diaryl compound” (THE WELLCOME FOUNDATION LIMITED, priority 1988, dated 1990).

The target in one data set is T1, ACAT (Homo sapiens, UniProt P35610).
T1 construct: Microsomal protein is therefore used as the source of both ACAT and cholesterol; endogenous in cells; host or cells: human embryo 407 intestinal epithelial cell line (microsomal fraction)
T1 sequence (P35610 1-550): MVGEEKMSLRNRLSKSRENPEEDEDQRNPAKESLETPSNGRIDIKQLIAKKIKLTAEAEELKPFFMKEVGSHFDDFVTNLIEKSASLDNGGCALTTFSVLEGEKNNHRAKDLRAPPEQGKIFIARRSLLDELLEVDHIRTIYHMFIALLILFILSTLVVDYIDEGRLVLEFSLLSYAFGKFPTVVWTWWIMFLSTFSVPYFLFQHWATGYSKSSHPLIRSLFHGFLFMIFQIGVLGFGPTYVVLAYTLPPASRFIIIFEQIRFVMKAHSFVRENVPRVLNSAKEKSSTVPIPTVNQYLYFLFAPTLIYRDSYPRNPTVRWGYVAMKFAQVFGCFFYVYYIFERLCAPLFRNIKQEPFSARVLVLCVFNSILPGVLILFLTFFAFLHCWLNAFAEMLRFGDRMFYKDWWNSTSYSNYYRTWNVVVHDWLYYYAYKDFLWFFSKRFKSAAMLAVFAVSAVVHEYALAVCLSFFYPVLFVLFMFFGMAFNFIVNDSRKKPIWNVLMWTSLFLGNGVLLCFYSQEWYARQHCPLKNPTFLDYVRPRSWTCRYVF
In words: In vitro inhibition of ACAT (radiometric, [14C]oleoyl CoA substrate, microsomal protein). Format: biochemical. To be noted: enzyme derived from human embryo 407 intestinal epithelial cell line, 37°C, pH 7.0, 4 minutes, read-out: IC₅₀ for ACAT inhibition. On the procedure: In vitro inhibition of ACAT
The in vitro esterification of cholesterol in the presence of ACAT and the test compound was assayed radiometrically using [¹⁴C]oleoyl CoA as substrate: [¹⁴C]oleoyl CoA + cholesterol → [¹⁴C]oleoyl cholesterol + CoASH [formula]
The enzyme is membrane-associated in vivo. Microsomal protein is therefore used as the source of both ACAT and cholesterol. The compound of the invention was tested against enzyme derived from human embryo 407 intestinal epithelial cell line.
[¹⁴C]Oleoyl CoA was incubated with microsomal protein at 37°C, pH 7.0, in the presence of various concentrations of the test compound. After 4 minutes, the reaction was stopped by the addition of ice-cold chloroform/methanol containing a known amount of [³H]oleoyl cholesterol to compensate for the loss of any [¹⁴C] product. A known volume of the resulting lower phase, which contains lipidic material from the reaction, was dried, redissolved in hexane containing unlabelled oleoyl cholesterol (TLC marker) and run on a quantitative TLC plate (silica gel). The oleoyl cholesterol spot was visualised (iodine vapour), removed from the TLC plate and its radioactivity measured by scintillation counting.
A plot of ACAT inhibitory activity vs concentration was prepared for the test compound and the corresponding IC₅₀ determined.

The subject of the next data set is isolated rat liver cells. The data set can be described thus: In vitro cytotoxicity: effects on metabolic competence of isolated rat liver cells. It is filed as cell-based. Here is the method:
The cytotoxicity of the compound of the invention was investigated in vitro by studying its effects on the metabolic competence of isolated rat liver cells. […] A 15% decrease in ATP levels was observed after 90 minutes at a concentration of 100µM.

As for `CCCCCCCNC(=O)Nc1c(F)cc(F)cc1CCc1ccc(CC(C)(C)C)cc1` [compound of the invention, 1-[2,4-difluoro-6-{2-[4-(2,2-dimethylpropyl)phenyl]ethyl}phenyl]-3-heptylurea], the IC50 at ACAT came out at 22 nM. Moreover, in the data set on isolated rat liver cells (after 90 minutes at a concentration of 100µM), the “decrease in ATP levels” value was determined as 15%. Also, the effect on gluconeogenesis entry in the data set with isolated rat liver cells (concentrations of up to 100µM) is “No effect”.
